Reference: patent publication EP0150892A2, “Substituted alkylidene imidazoles” (G.D. Searle & Co., priority 1984, dated 1985)

Target: T1, thromboxane synthetase (Cavia porcellus, UniProt H0UT36)
T1 construct: from tissue; host or cells: citrated whole blood (platelets) of albino male Dunkin-Hartley guinea pigs (printed 'Dunkin-Bartley') dosed orally
T1 sequence (H0UT36 1-533): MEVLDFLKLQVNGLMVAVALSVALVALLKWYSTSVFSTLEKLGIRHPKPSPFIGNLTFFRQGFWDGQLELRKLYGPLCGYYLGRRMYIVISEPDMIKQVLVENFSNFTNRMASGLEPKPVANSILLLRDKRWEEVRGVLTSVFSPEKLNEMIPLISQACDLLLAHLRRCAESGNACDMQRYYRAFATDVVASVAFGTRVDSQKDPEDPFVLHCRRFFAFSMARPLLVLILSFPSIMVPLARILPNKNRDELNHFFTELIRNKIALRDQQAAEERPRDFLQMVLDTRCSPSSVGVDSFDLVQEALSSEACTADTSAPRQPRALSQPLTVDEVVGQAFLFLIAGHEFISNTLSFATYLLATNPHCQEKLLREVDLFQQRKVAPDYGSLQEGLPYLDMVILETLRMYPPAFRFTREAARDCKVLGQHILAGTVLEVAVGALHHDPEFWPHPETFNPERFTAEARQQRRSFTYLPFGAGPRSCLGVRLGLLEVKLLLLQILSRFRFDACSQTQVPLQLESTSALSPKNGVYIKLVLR
Assay: Whole blood aggregation and thromboxane formation in vivo: guinea pig (plasma TXB2 by radioimmunoassay after oral dosing)
Conditions: plasma TXB2 in collagen-stimulated citrated whole blood of guinea pigs dosed orally, versus vehicle controls; normalized to platelet count; dose not given

SMILES: CCOC(=O)c1ccc(/C=C(/COCc2ccc(OC)cc2)Cn2ccnc2)c(OC)c1 (single isomer, unassigned) [11 (E-isomer), ethyl 4-[3-(1H-imidazol-1-yl)-2-[[(4-methoxyphenyl]methoxy]methyl]-lE-propenyl]-3-methoxybenzoate]
- % INHIBITION: -36.0%
